The source of these data is the METLIN SMRT retention time set (Domingo-Almenara et al. 2019).

Each structure is given as a SMILES string.

A short description of the data set: gradient 5% acetonitrile 3 min, to 50% in 2 min, to 85% in 15 min, held 3 min, 100 µL/min. Conditions: column: Zorbax Extend-C18 2.1 x 50 mm; eluents: water / acetonitrile, 0.1% formic acid. The method, boiled down: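 A Zorbax Extend-C18 column (2.1 × 50 mm, 1.8 μm) run at 100 μL/min with water and acetonitrile, both containing 0.1% formic acid, separated mixtures of ~100 pure standards. The HPLC was coupled to a quadrupole time-of-flight mass spectrometer operated in positive and negative ionization mode, with dead and dwell volumes of 40 μL and 900 μL. Each retention time was taken from a computationally picked adduct peak that was then manually inspected.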
As for `Cc1cc2n(n1)CCC(=O)N2CCCC(=O)NCCN(C)C1CCCCC1`, the RP-LC retention time is 576 s.

`COc1cccc(-c2ccnc3nc(Cc4ccc(F)cc4)nn23)c1` yielded an RP-LC retention time of 922 s. The value for `Cn1c(-c2cccs2)nn(CCNC(=O)c2ccccc2SC(F)F)c1=O` was 677 s; that for `CC(=O)c1cccc(NC(=O)c2ncn(-c3ccccc3)n2)c1` was 731 s; that for `CCCNC(=O)CN1CCN(C(=O)c2sc3ncccc3c2-n2cccc2)CC1` was 620 s. The result for `Cc1cc(NC(=O)C2CCCN(c3nnc4cccc(C)n34)C2)ccc1F` (stereo not drawn) reads 721 s; that for `COC1CN(C2CCN(C(=O)c3sc(C)nc3C)CC2)C12CCOCC2` (stereo not drawn), 796 s; that for `CCN(CC)c1ccc(CNC(=O)C2CCc3nc(N4CCOCC4)ncc3C2)cc1` (stereo not drawn), 588 s. The value for `NS(=O)(=O)c1ccc(CNC(=O)C2CN(C(=O)c3ccc(F)c(F)c3)C2)cc1` was 631 s. The compound `COc1cccc(CNC(=O)C2CCc3nc(N4CCCCC4)ncc3C2)c1` (stereo not drawn) showed an RP-LC retention time of 665 s. The result for `COC1CCC12CCN(C(=O)c1ocnc1C)CC2` (stereo not drawn) reads 692 s; that for `CCc1nc2ccccc2c(=O)n1Cc1noc(C2CC(=O)N(c3ccc(C)c(C)c3)C2)n1` (stereo not drawn), 927 s. The value for `C[C@H]1CN(C(=O)c2ccc(F)cc2F)C[C@@H]1c1nc(-c2ccccc2)no1` was 1040 s.

Turning to `Cc1cccc(S(=O)(=O)N2CCC(c3nc(C(=O)N4CCOCC4)c(C)o3)CC2)c1`, the RP-LC retention time turned out to be 819 s.

For `COCCc1noc(C2CN(C(=O)C(C)C)C2)n1`, the RP-LC retention time stood at 621 s.

`Cc1cc(C)c(S(=O)(=O)N2CCc3c(c(-c4nnc(-c5ccccc5F)o4)nn3C)C2)cc1C` yielded an RP-LC retention time of 1070 s. The result for `CCNC(=O)N1CC(C)Oc2ccccc21` (stereo not drawn) reads 762 s; that for `CC(C)CN1CCN(C(=O)CN2CCN(Cc3ccc(F)cc3Cl)C2=O)CC1`, 634 s. The value for `CC(C)c1nc(-c2ccc([N+](=O)[O-])cc2)cs1` was 1120 s; that for `Cc1ccc(Nc2nc(-c3ccccc3)c(CC(=O)O)s2)cc1` was 900 s; that for `COc1ccc(-c2nnc(-c3cccc(S(=O)(=O)N4CCCCC4)c3)o2)cc1OC` was 991 s. The value for `CC(C)NC(=O)N1CCNC(=O)C1` was 540 s; that for `COc1ccc(N2CCN(c3ncc(C(=O)O)c(C(C)C)n3)CC2)cc1` was 865 s; that for `CCc1noc(NC(C)=O)c1-c1ccc(C)c(S(=O)(=O)Nc2ccc(Cl)cc2C)c1` was 888 s. Compound `CC(C)N1CCn2c(nc3cc(C(=O)NCc4cccc(Cl)c4)ccc32)C1=O` yielded an RP-LC retention time of 733 s.

`CCc1nn2c(CNS(=O)(=O)c3ccc4c(c3)CCC4)c(-c3ccccc3)nc2s1` registered an RP-LC retention time of 1020 s.

In turn, `COc1cccc(-n2c(=O)c(C(=O)Nc3ccc(F)c(F)c3)c(O)c3cccnc32)c1` came in with an RP-LC retention time of 1250 s. The result for `Cc1cc(C)cc(Nc2c(C(=O)N3CCCCC3C)cnc3nc(C)ccc23)c1` (stereo not drawn) reads 703 s; that for `CCC(=O)N1CCc2c([nH]c3ccc(Cl)cc23)C12C(=O)N(C)c1ccccc12` (stereo not drawn), 901 s; that for `Cc1ccc(S(=O)(=O)N(c2ccc(Br)cc2)C2C=CS(=O)(=O)C2)cc1` (stereo not drawn), 887 s. The result for `COc1ccc(-c2nnc(Cc3nc(-c4ccc(Cl)cc4)no3)o2)cc1` reads 1070 s; that for `Cn1c(=O)c(SCC(=O)NCc2cccc(Cl)c2)nc2ccccc21`, 819 s. The result for `O=S(=O)(c1cccc(F)c1)N1CC(c2noc(C3CCCN3CC3CC3)n2)C1` (stereo not drawn) reads 676 s.
